Measured values from ChEMBL document CHEMBL1201862, “PubChem BioAssay data set” (2004).
“Also recorded” adds a separate entry of the source. The source made the active and inactive calls.

Experiments:
[1] = restored growth of temperature-sensitive Burl-1 yeast – whole organism, S. cerevisiae, Burl-1 ts mutant, luminescence, counter-screen for SUMOylation pathway inhibitor project, dose response (AID 463199); format: functional
[2] = biological target: T1, Heat shock factor protein 1 (Mus musculus, UniProt P38532); assay: decrease of HSF1-responsive luciferase luminescence – cell-based, NIH3T3, dose retest, confirmation (AID 2382); format: functional;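 further: NIH3T3 fibroblasts with HSF1-driven luciferase reporter stressed by proteasome inhibitor MG132; luminescence from HSF1-driven luciferase expression after 8 hours of MG132 stress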
T1 sequence (P38532 whole entry): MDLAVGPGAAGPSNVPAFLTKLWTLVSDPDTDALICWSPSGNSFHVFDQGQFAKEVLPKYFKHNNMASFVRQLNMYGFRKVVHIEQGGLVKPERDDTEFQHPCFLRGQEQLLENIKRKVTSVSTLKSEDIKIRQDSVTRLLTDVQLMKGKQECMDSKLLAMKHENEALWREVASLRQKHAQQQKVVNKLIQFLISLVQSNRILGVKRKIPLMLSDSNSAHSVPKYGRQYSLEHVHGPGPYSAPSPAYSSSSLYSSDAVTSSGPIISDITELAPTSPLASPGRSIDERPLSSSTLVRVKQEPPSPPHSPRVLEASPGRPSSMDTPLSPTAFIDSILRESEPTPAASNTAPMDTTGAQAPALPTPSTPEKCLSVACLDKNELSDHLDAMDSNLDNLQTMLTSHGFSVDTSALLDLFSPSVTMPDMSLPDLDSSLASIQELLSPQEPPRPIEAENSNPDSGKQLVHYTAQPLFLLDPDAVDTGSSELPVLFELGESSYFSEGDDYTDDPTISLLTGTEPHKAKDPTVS

[3] = biological target: DNA dC->dU-editing enzyme APOBEC-3A (Homo sapiens, UniProt P31941); assay: A3A deaminase inhibition for selectivity – biochemical, dose response (AID 504722); format: functional
DNA dC->dU-editing enzyme APOBEC-3A, sequence (P31941 whole entry): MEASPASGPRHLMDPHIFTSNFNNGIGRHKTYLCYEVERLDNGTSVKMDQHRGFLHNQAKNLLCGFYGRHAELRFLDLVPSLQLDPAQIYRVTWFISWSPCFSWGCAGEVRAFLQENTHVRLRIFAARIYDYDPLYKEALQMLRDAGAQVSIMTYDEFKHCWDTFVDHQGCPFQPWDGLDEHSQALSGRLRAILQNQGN

[4] = biological target: T2, Apoptotic protease-activating factor 1 (Homo sapiens, UniProt O14727); format: functional
T2 sequence (O14727 whole entry): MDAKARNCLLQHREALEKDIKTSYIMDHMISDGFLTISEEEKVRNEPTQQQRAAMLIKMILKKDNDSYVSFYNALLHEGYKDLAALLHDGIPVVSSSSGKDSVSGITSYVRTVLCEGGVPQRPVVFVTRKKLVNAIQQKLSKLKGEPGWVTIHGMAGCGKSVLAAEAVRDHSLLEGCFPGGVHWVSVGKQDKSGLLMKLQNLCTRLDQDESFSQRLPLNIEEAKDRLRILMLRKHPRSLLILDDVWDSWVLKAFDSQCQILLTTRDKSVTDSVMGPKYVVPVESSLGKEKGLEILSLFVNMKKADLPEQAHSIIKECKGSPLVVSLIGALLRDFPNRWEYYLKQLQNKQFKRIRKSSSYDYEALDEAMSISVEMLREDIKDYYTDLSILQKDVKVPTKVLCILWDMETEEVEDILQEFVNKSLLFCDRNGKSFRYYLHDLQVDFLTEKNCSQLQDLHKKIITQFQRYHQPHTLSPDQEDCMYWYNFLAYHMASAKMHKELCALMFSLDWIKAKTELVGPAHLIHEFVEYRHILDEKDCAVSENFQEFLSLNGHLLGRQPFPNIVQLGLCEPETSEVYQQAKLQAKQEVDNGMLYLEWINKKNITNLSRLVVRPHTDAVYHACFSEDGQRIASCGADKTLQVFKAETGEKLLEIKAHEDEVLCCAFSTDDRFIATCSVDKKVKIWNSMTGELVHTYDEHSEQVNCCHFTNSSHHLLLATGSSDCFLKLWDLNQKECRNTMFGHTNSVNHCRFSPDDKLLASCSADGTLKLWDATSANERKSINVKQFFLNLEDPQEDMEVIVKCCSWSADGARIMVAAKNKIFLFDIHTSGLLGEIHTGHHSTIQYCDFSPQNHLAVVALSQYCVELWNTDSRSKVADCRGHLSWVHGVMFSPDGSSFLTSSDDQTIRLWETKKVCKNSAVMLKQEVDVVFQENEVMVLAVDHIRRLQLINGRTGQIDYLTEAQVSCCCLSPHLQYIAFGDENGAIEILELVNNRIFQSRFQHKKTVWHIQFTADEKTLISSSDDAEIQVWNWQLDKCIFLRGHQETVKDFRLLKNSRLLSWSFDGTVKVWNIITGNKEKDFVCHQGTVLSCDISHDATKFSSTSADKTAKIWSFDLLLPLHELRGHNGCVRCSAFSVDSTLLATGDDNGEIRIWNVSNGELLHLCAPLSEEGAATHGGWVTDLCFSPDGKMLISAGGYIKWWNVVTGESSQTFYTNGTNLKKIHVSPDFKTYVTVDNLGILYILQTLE

[5] = biological target: DNA dC->dU-editing enzyme APOBEC-3G (Homo sapiens, UniProt Q9HC16); assay: Dose Response confirmation of small molecule APOBEC3G DNA Deaminase Inhibitors via a fluorescence-based single-stranded DNA deaminase assay. [Related pubchem assays (depositor defined):AID493012, AID493028]; format: functional
DNA dC->dU-editing enzyme APOBEC-3G, sequence (Q9HC16 whole entry): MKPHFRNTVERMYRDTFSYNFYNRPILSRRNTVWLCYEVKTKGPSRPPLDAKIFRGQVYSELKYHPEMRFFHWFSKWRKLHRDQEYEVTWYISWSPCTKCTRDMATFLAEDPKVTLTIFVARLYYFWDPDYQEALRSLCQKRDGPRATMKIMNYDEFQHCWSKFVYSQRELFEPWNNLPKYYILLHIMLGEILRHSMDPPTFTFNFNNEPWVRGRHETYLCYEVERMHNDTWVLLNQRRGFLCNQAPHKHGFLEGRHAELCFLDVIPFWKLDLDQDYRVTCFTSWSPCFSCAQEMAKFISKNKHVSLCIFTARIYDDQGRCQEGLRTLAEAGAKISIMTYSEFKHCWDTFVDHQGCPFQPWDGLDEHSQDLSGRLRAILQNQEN

[6] = biological target: RNA-editing ligase 1, mitochondrial (Trypanosoma brucei brucei, UniProt P86926); assay: inhibition of trypanosome RNA editing ligase – biochemical, fluorescence, Trypanosoma brucei, dose response (AID 1117295); format: functional
RNA-editing ligase 1, mitochondrial, sequence (P86926 whole entry): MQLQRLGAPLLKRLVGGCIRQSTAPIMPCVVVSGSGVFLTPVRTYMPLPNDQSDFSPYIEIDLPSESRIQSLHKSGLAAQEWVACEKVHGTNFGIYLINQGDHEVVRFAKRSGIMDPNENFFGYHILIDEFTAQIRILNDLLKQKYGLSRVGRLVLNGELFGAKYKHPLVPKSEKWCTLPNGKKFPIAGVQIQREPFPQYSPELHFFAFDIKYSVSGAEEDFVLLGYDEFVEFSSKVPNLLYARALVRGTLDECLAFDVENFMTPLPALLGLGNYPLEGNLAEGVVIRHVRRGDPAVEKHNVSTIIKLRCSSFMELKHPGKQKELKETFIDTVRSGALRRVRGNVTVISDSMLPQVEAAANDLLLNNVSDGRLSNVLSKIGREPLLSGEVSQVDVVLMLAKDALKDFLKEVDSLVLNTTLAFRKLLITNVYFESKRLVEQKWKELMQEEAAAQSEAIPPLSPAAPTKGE

[7] = biological target: Lysine-specific demethylase 4C (Homo sapiens, UniProt Q9H3R0); assay: inhibition of JMJD2C H3K9me3 demethylation – biochemical, DELFIA europium, cherry-picked samples, dose response (AID 488835); format: functional
Lysine-specific demethylase 4C, sequence (Q9H3R0 whole entry): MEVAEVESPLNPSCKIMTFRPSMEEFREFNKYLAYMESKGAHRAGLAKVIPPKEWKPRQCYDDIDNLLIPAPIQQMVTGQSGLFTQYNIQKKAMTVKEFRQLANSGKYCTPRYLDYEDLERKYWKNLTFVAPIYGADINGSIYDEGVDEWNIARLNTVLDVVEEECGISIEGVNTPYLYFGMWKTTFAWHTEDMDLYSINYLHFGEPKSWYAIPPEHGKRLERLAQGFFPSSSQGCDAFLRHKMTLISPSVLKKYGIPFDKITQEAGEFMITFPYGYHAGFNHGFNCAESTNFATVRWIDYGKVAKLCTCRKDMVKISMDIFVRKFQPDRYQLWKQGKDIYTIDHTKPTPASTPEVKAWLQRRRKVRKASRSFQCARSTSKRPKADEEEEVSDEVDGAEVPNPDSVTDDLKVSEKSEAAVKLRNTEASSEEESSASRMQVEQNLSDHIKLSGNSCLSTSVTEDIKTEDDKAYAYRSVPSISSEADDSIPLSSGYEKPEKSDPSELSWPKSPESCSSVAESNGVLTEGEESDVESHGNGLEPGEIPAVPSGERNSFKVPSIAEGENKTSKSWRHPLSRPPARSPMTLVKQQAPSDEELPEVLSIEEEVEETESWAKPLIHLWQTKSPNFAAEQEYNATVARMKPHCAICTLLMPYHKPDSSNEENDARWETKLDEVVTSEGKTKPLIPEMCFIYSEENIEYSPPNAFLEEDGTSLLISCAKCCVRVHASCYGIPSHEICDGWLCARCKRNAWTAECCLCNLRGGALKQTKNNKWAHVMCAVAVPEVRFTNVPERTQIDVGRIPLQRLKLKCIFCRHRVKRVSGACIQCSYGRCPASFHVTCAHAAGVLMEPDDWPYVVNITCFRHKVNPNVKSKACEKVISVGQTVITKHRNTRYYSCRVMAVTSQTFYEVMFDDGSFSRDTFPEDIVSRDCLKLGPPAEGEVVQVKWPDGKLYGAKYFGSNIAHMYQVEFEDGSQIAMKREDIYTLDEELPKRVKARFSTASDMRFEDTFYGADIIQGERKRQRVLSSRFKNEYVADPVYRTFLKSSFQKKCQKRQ

[8] = biological target: Heat shock protein HSP 90-alpha (Homo sapiens, UniProt P07900); format: functional, organism-based
[9] = system: INS1; assay: INS-1E survival protection against cytokine death – cell-based, luminescence, retest, dose response (AID 449756); format: functional; conditions: Rattus norvegicus;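 further: cell death triggered by IL-1 beta plus TNF-alpha plus IFN-gamma mixture; protective hits raise ATP signal compared with cytokine alone wells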
[10] = biological target: T3, Rac GTPase-activating protein 1 (Homo sapiens, UniProt Q9H0H5); assay: blockers of MgcRacGAP-driven Rac1 GTP hydrolysis – biochemical, ADP Hunter fluorescence, primary and confirmatory, confirmation (AID 624330); format: functional
T3 sequence (Q9H0H5 whole entry): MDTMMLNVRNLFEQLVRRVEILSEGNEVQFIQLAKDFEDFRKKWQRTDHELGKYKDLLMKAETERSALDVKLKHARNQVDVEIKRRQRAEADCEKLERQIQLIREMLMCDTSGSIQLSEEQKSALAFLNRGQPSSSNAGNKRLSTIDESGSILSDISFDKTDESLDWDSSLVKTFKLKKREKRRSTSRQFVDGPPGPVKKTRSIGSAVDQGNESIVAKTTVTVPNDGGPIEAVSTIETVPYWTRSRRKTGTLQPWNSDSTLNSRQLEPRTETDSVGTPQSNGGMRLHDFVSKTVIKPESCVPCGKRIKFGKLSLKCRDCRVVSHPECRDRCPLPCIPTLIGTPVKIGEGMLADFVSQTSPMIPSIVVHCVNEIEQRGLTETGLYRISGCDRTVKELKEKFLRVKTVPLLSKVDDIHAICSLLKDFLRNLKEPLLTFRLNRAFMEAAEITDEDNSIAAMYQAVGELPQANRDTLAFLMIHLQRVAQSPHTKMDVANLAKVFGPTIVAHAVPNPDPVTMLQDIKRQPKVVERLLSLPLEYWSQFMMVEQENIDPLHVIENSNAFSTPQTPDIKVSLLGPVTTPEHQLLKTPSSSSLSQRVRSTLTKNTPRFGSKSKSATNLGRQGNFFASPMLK

[11] = biological target: Cytochrome P450 2C19 (Homo sapiens, UniProt P33261); assay: Cytochrome panel assay with activity outcomes. Panel member name: p450-cyp2c19 Compounds with AC50 equal or less than 10 uM are considered active; format: functional
Cytochrome P450 2C19, sequence (P33261 whole entry): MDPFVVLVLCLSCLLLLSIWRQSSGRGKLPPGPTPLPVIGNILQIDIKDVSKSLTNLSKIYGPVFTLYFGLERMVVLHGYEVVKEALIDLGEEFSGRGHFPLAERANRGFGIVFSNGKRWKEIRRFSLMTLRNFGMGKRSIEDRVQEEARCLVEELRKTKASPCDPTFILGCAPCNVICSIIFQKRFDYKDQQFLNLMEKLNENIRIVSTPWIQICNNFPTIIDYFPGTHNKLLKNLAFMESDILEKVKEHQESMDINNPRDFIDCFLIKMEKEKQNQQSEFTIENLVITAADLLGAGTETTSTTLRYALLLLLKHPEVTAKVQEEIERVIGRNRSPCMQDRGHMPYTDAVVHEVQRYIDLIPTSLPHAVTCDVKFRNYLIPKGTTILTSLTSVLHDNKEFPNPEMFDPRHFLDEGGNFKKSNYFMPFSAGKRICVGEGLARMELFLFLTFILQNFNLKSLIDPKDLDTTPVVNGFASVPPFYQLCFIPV

[12] = biological target: T4, Cytochrome P450 1A2 (Homo sapiens, UniProt P05177);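 further: PubChem cytochrome P450 panel assay, CYP1A2 panel member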
T4 sequence (P05177 whole entry): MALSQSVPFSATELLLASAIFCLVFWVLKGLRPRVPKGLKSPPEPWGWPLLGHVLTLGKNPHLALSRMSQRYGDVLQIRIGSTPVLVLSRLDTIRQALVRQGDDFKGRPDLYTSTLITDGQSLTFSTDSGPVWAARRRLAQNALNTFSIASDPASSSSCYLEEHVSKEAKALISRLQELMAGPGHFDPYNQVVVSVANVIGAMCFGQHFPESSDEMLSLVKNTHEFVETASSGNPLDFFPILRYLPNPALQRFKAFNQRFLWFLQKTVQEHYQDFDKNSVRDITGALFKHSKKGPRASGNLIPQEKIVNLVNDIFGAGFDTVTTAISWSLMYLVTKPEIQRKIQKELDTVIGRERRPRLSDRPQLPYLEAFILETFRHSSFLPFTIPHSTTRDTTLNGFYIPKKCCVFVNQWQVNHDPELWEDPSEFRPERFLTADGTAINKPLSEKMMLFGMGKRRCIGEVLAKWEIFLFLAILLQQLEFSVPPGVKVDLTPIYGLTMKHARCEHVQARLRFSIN

[13] = luciferase reporter signal suppression in cells – H4 neuroglioma cells, luminescence, dose response (AID 1990); format: functional, cell-based
[14] = Counterscreen for AddAB inhibitors: absorbance-based bacterial cell-based high throughput dose response assay for inhibitors of bacterial viability. [Related pubchem assays (depositor defined):AID435030, AID449728, AID449731, AID488942, AID488955, AID488956]; format: functional
[15] = biological target: Phospholipase A2 (Homo sapiens, UniProt P04054); format: functional;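 further: confirmatory dose-response counterscreen on phospholipase A2, testing hits that came from an ultra-high-throughput screen for ATG4B inhibitors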
Phospholipase A2, sequence (P04054 whole entry): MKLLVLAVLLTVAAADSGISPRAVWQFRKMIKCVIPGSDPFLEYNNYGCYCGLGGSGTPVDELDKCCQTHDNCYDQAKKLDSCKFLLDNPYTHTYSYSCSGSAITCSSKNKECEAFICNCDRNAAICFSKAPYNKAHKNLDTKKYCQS

[16] = biological target: Exodeoxyribonuclease V (Escherichia coli (strain K12), UniProt P04993+P07648+P08394); assay: RecBCD inhibition via phage-restricted bacterial growth – absorbance, V66 E. coli, mutant T4 phage, counter-screen for AddAB inhibitor project, dose response (AID 492957); format: functional, cell-based, Escherichia coli str. K-12 substr. MG1655
[17] = Luminescent dose response cell-based high throughput screening assay for inhibitors of the Janus kinase 2 mutant JAK2V617F. [Related pubchem assays: 1446 (Primary screen.), 1521 (Confirmation assay.), 1486 (Counter screen.)]; format: functional
[18] = biological target: T5, Cysteine protease ATG4B (Homo sapiens, UniProt Q9Y4P1); format: functional;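 further: Fluorescence-based dose-response confirmation assay measuring inhibition of ATG4B activity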
T5 sequence (Q9Y4P1 whole entry): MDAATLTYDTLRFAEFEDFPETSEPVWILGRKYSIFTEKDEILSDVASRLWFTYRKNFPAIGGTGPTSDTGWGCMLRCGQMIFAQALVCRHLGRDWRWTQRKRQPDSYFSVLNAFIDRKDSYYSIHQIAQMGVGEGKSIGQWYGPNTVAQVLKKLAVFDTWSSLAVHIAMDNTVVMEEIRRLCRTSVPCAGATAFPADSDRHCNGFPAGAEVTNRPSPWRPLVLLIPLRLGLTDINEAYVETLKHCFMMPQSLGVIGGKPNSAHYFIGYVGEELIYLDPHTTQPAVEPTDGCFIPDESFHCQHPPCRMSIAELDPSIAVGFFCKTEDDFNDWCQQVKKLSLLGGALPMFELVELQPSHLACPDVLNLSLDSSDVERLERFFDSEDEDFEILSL

[19] = Luminescence Cell-Based Dose Retest to Confirm Inhibitors of Cancer Stem Cells. [Related pubchem assays (depositor defined):AID2717, AID2721]; format: functional; conditions: Homo sapiens
[20] = Luminescence Cell-Based Dose Response HTS to Identify Inhibitors of 5'UTR Stem-Loop Driven Prion Protein mRNA Translation in H4 Neuroglioblastoma Cells. [Related pubchem assays: 1827 (Project Summary), 1813 (Primary HTS)]; format: functional
[21] = alpha-synuclein stem-loop luciferase translation blockers – H4 neuroglioma cells, luminescence, confirmation (AID 1988); format: functional, cell-based
[22] = biological target: T6, Cytochrome P450 2D6 (Homo sapiens, UniProt P10635)
T6 sequence (P10635 whole entry): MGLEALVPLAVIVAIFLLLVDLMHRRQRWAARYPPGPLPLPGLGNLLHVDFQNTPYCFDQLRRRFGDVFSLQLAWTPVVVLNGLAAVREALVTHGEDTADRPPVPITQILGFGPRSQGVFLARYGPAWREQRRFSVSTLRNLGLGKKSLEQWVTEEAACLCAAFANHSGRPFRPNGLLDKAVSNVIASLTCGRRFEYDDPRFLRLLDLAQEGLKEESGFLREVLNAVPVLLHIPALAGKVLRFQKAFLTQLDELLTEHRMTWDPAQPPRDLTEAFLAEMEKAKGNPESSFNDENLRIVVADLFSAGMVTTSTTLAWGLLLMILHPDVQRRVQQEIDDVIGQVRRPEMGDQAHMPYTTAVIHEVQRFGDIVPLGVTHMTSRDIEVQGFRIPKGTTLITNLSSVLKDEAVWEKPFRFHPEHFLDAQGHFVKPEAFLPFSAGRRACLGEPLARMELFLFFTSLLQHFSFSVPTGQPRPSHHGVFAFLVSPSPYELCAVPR

[23] = biological target: Cytochrome P450 2C9 (Homo sapiens, UniProt P11712)
Cytochrome P450 2C9, sequence (P11712 whole entry): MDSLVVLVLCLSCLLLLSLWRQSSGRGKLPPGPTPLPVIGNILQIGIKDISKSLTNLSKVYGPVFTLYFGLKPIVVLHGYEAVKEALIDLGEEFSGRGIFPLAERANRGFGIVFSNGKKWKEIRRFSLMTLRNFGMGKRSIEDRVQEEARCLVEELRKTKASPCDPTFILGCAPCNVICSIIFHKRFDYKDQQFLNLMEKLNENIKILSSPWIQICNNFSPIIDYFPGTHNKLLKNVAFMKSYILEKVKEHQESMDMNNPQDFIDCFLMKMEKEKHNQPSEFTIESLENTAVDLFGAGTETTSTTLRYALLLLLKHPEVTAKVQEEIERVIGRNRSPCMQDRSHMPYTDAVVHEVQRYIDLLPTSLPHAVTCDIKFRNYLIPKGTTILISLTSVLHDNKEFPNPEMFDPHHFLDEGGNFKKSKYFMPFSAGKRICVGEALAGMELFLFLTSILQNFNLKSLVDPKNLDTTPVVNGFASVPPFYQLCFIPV

[24] = biological target: T7, Cytochrome P450 3A4 (Homo sapiens, UniProt P08684);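 further: CYP3A4 tested as one member of a cytochrome P450 panel screen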
T7 sequence (P08684 whole entry): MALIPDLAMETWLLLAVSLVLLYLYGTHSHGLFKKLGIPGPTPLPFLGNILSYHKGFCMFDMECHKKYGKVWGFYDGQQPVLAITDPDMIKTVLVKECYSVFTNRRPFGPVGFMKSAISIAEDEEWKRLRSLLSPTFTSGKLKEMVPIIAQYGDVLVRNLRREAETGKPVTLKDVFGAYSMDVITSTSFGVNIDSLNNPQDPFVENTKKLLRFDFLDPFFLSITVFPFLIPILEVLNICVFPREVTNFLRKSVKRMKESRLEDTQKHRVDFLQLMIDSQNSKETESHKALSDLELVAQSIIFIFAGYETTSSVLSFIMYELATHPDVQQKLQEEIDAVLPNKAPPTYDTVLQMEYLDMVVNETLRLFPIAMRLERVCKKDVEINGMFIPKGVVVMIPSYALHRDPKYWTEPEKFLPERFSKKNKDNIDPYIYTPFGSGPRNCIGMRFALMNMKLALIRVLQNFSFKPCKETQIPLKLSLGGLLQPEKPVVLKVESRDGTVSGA

[25] = biological target: T7, Cytochrome P450 3A4; remark: listed apart in the source
[26] = biological target: T4, Cytochrome P450 1A2; remark: listed apart in the source
[27] = biological target: T6, Cytochrome P450 2D6; assay: qHTS Assay for Inhibitors and Substrates of Cytochrome P450 2D6. [Related pubchem assays: 410 ]; format: ADME; conditions: read-out: Potency

O=C(c1ccc([N+](=O)[O-])cc1)N1CCN(c2ncc(Br)cn2)CC1
AC50 [1]: 72.3 µM (active) | EC50 [2]: > 195 µM (not active)

CCNCCNC(=O)c1c(O)nc2c(c1O)CCCC2
AC50 [1]: 73.1 µM (active)

Cc1nnc(N=c2ssnc2Cl)o1
IC50 [3]: > 100 µM (inactive) | IC50 [4]: 16 µM (active) | IC50 [5]: 4.6 µM (active) | IC50 [6]: 79 µM (inactive) | AC50 [7]: 6.06 µM (active) | AC50 [8]: 3.13 µM (active) | AC50 [9]: 3.77 µM (active) | IC50 [10]: 69.6 µM (active)

COc1cc2nc(N3CCN(C(=O)[C@@H]4COc5ccccc5O4)CC3)nc(N)c2cc1OC.CS(=O)(=O)O
AC50 ([11]; read-out: AC50): 0.501 µM (inconclusive) | AC50 [12]: inactive

COc1cccc(/C=N/NC(=O)c2[nH]c(C)c(C(=O)N/N=C/c3cccc(OC)c3O)c2C)c1O
EC50 [13]: 9.94 µM (active) | IC50 [14]: > 119 µM (inactive) | IC50 [15]: 9.88 µM (active) | IC50 [16]: > 119 µM (inactive) | IC50 [17]: 2.8 µM (active) | IC50 [18]: 7.03 µM (active) | AC50 [19]: 2.44 µM (active) | EC50 [20]: 18.9 µM (active) | EC50 [21]: 15.3 µM (active)

N[C@H](CCC(=O)O)C(=O)O [D-GLUTAMATE]
AC50 [22]: inactive; also recorded: inconclusive | AC50 [23]: inactive | AC50 [24]: 25.1 µM (inconclusive) | AC50 [11]: inactive | AC50 [25]: inactive | AC50 [12]: inactive | AC50 [26]: 31.6 µM (inconclusive) | AC50 [27]: 10 µM (not active)
